# Legend:
# [1] = test system: Russian thistle (SASKR); test: Postemergence greenhouse trial, % visual injury on Russian thistle; assay type: in vivo, Salsola kali; conditions: for % visual injury, Ob: alone; for % visual injury, observed (Ob): SASKR
# [2] = test system: common poppy (PAPRH); test: Postemergence greenhouse trial, % visual injury on common poppy; assay type: in vivo, Papaver rhoeas; conditions: for % visual injury, observed (Ob): PAPRH
# Procedure, shortened: (§1)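 Herbicide rates g ae/ha, safener (cloquintocet-mexyl) rates g ai/ha; spray carrier 1.5% v/v crop oil concentrate, 187 L/ha, 2nd–3rd leaf stage. Rating: visual % injury at 20-22 d.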
# [3] = test system: spring wheat (TRZAS); test: Postemergence greenhouse trial, % visual injury on spring wheat; assay type: in vivo, Triticum aestivum; conditions: alone
# Procedure, shortened: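 Postemergence greenhouse spray (187 L/ha, 1.5% v/v Agri-dex in water, acetone/DMSO stocks) on plants at second–third true leaf stage, ~23/22 °C, 14 h photoperiod; herbicides in g ae/ha, safener cloquintocet-mexyl in g ai/ha. Visual injury 0–100% versus solvent-blank controls after 20–22 d; Colby's equation gave expected mixture effects.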
# [4] = test system: cornflower (CENCY); test: Postemergence greenhouse trial, % visual injury on cornflower; assay type: in vivo, Centaurea cyanus or Cyanus segetum; conditions: for % visual injury, Ob: alone; for % visual injury, observed (Ob): CENCY
# [5] = test system: lambsquarters (CHEAL); test: Postemergence greenhouse trial, % visual injury on lambsquarters; assay type: in vivo, Chenopodium album; conditions: for % visual injury, observed (Ob): CHEAL
# Procedure, shortened: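 Plants at second or third true leaf stage, greenhouse-grown (14 h photoperiod, ~23/22° C.), sprayed postemergence with compounds alone or with safener cloquintocet-mexyl in 1.5% v/v Agri-dex crop oil at 187 L/ha. Visual injury scored 0–100% versus solvent-blank controls after 20-22 d; expected mixture effects by Colby's equation.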
# [6] = test system: wild mustard (SINAR); test: Postemergence greenhouse trial, % visual injury on wild mustard; assay type: in vivo, Sinapis arvensis; conditions: for % visual injury, observed (Ob): SINAR
# Procedure, shortened: as §1
# [7] = test system: shepherd's purse (CAPBP); test: Postemergence greenhouse trial, % visual injury on shepherd's purse; assay type: in vivo, Capsella bursa-pastoris; conditions: alone
# Method: (§2) Seeds of the desired test plant species were planted in Sun Gro MetroMix® 306 planting mixture, which typically has a pH of 6.0 to 6.8 and an organic matter content of about 30 percent, in plastic pots with a surface area of 103.2 square centimeters (cm^2). When required to ensure good germination and healthy plants, a fungicide treatment and/or other chemical or physical treatment was applied. The plants were grown for 7-36 days (d) in a greenhouse with an approximate 14-hour (h) photoperiod which was maintained at about 23° C. during the day and 22° C. during the night. Nutrients and water were added on a regular basis and supplemental lighting was provided with overhead metal halide 1000-Watt lamps as necessary. The plants were employed for testing when they reached the second or third true leaf stage.
# (§3) Weighed amounts of technical material were dissolved in a volume of 97:3 volume per volume (v/v) acetone/dimethyl sulfoxide (DMSO) to stock solutions. […] The concentrated stock solutions were diluted with an aqueous mixture of 1.5% v/v of Agri-dex crop oil concentrate to provide the appropriate application rates. Compound requirements are based upon a 12 milliliter (mL) application volume at a rate of 187 liters per hectare (L/ha). Stocks solutions of the safeners were prepared following the same procedure. Spray solutions of the safeners and experimental compound mixtures were prepared by adding the stock solutions to the appropriate amount of dilution solution to form a 12 mL spray solution in two-way combinations. Formulated compounds were applied to the plant material with an overhead Mandel track sprayer equipped with 8002E nozzles calibrated to deliver 187 L/ha over an application area of 0.503 square meters (m^2) at a spray height of 18 inches (43 centimeters (cm)) above average plant canopy. Control plants were sprayed in the same manner with the solvent blank. All herbicide application (component a) rates are in g ae/ha and all safener (component b) rates are in g ai/ha.
# (§4) The treated plants and control plants were placed in a greenhouse as described above and watered by sub-irrigation to prevent wash-off of the test compounds. After 20-22 d, the condition of the test plants as compared with that of the control plants was determined visually and scored on a scale of 0 to 100 percent where 0 corresponds to no injury and 100 corresponds to complete kill. The condition of the test plants was compared with that of the control plants as determined visually and scored on a scale of 0 to 100 percent, where 0 corresponds to no injury and 100 corresponds to complete kill. Colby's equation was used to determine the herbicidal effects expected from the mixtures.
# The safener cloquintocet-mexyl was combined with compound 1, compound 2, compound 3, compound 7, compound 8, compound 9, compound 10, compound 11, compound 12, compound 13, compound 14, compound 15, compound 16, compound 17, compound 18, compound 19, and compound 20, and applied to spring wheat (TRZAS), winter wheat (TRZAW), and spring barley (HORVS) and the phytotoxicity of the herbicidal compositions was measured. […]
# [8] = test system: wild chamomile (MATCH); test: Postemergence greenhouse trial, % visual injury on wild chamomile; assay type: in vivo, Matricaria chamomilla
# Method: as §2, §3
# as §4, with “mixtures. […]” for “mixtures.”
# [9] = Chenopodium album, post-emergence, alone, read-out: % visual injury, Ob
# [10] = compound 2 4.380 + CQC-m 0 g/ha
smiles,measurement,setting,value
Nc1c(F)c(-c2ccc3cc[nH]c3c2F)nc(C(=O)O)c1Cl [compound 1],"% visual injury, Ob",[1]; 4.375 g/ha,66%
same,"% visual injury, Ob",[1]; 8.75 g/ha,70%
same,"% visual injury, Ob",[1]; 17.5 g/ha,82%
same,"% visual injury, Ob",[1]; 35 g/ha,90%
same,"% visual injury, Ob",[1]; 70 g/ha,91%
same,pest or weed control at 4.375 g/ha,"[2]; Papaver rhoeas, post-emergence, alone, 4.375 g/ha, read-out: % visual injury, Ob",97%
same,pest or weed control at 8.75 g/ha,"[2]; Papaver rhoeas, post-emergence, alone, 8.75 g/ha, read-out: % visual injury, Ob",99%
same,pest or weed control at 17.5 g/ha,"[2]; Papaver rhoeas, post-emergence, alone, 17.5 g/ha, read-out: % visual injury, Ob",100%
same,pest or weed control at 35 g/ha,"[2]; Papaver rhoeas, post-emergence, alone, 35 g/ha, read-out: % visual injury, Ob",100%
same,pest or weed control at 70 g/ha,"[2]; Papaver rhoeas, post-emergence, alone, 70 g/ha, read-out: % visual injury, Ob",100%
same,"% visual injury, Ob",[3]; 4.375 g/ha,13%
same,"% visual injury, Ob",[3]; 8.75 g/ha,16%
same,"% visual injury, Ob",[3]; 17.5 g/ha,31%
same,"% visual injury, Ob",[3]; 35 g/ha,39%
same,"% visual injury, Ob",[3]; 70 g/ha,51%
same,"% visual injury, Ob",[4]; 17.5 g/ha,100%
same,"% visual injury, Ob",[4]; 70 g/ha,100%
same,pest or weed control at 4.375 g/ha,"[5]; Chenopodium album, post-emergence, alone, 4.375 g/ha, read-out: % visual injury, Ob",86%
same,pest or weed control at 8.75 g/ha,"[5]; Chenopodium album, post-emergence, alone, 8.75 g/ha, read-out: % visual injury, Ob",95%
same,pest or weed control at 17.5 g/ha,"[5]; Chenopodium album, post-emergence, alone, 17.5 g/ha, read-out: % visual injury, Ob",99%
same,pest or weed control at 35 g/ha,[5]; [9],100%
same,pest or weed control at 70 g/ha,"[5]; Chenopodium album, post-emergence, alone, 70 g/ha, read-out: % visual injury, Ob",100%
same,pest or weed control at 4.375 g/ha,"[6]; Brassica, post-emergence, alone, 4.375 g/ha, read-out: % visual injury, Ob",85%
same,pest or weed control at 8.75 g/ha,"[6]; Brassica, post-emergence, alone, 8.75 g/ha, read-out: % visual injury, Ob",88%
same,pest or weed control at 17.5 g/ha,"[6]; Brassica, post-emergence, alone, 17.5 g/ha, read-out: % visual injury, Ob",98%
same,pest or weed control at 35 g/ha,"[6]; Brassica, post-emergence, alone, 35 g/ha, read-out: % visual injury, Ob",99%
same,pest or weed control at 70 g/ha,"[6]; Brassica, post-emergence, alone, 70 g/ha, read-out: % visual injury, Ob",100%
same,"% visual injury, Ob",[7]; 4.375 g/ha,70%
same,"% visual injury, Ob",[7]; 8.75 g/ha,100%
same,"% visual injury, Ob",[7]; 17.5 g/ha,100%
same,"% visual injury, Ob",[7]; 35 g/ha,100%
same,"% visual injury, Ob",[7]; 70 g/ha,100%
Nc1c(F)c(-c2ccc3cc[nH]c3c2F)nc(C(=O)OCc2ccccc2)c1Cl [compound 2],"% visual injury, observed (Ob)",[1]; [10],75%
same,"% visual injury, observed (Ob)",[1]; compound 2 8.75 + CQC-m 0 g/ha,85%
same,"% visual injury, observed (Ob)",[1]; compound 2 17.5 + CQC-m 0 g/ha,89%
same,"% visual injury, observed (Ob)",[1]; compound 2 35 + CQC-m 0 g/ha,92%
same,"% visual injury, observed (Ob)",[1]; compound 2 70 + CQC-m 0 g/ha,92%
same,"% visual injury, observed (Ob)",[2]; [10],93%
same,"% visual injury, observed (Ob)",[2]; compound 2 8.75 + CQC-m 0 g/ha,100%
same,"% visual injury, observed (Ob)",[2]; compound 2 17.5 + CQC-m 0 g/ha,100%
same,"% visual injury, observed (Ob)",[2]; compound 2 35 + CQC-m 0 g/ha,100%
same,"% visual injury, observed (Ob)",[2]; compound 2 70 + CQC-m 0 g/ha,100%
same,"% visual injury, Ob",[3]; 35 g/ha,15%
same,"% visual injury, observed (Ob)",[4]; [10],100%
same,"% visual injury, observed (Ob)",[4]; compound 2 8.75 + CQC-m 0 g/ha,100%
same,"% visual injury, observed (Ob)",[4]; compound 2 17.5 + CQC-m 0 g/ha,100%
same,"% visual injury, observed (Ob)",[4]; compound 2 35 + CQC-m 0 g/ha,100%
same,"% visual injury, observed (Ob)",[4]; compound 2 70 + CQC-m 0 g/ha,100%
same,"% visual injury, observed (Ob)",[5]; [10],85%
same,"% visual injury, observed (Ob)",[5]; compound 2 8.75 + CQC-m 0 g/ha,95%
same,"% visual injury, observed (Ob)",[5]; compound 2 17.5 + CQC-m 0 g/ha,97%
same,"% visual injury, observed (Ob)",[5]; compound 2 35 + CQC-m 0 g/ha,100%
same,"% visual injury, observed (Ob)",[5]; compound 2 70 + CQC-m 0 g/ha,100%
same,pest or weed control at 35 g/ha,[5]; [9],97%
same,"% visual injury, observed (Ob)",[6]; [10],94%
same,"% visual injury, observed (Ob)",[6]; compound 2 8.75 + CQC-m 0 g/ha,95%
same,"% visual injury, observed (Ob)",[6]; compound 2 17.5 + CQC-m 0 g/ha,99%
same,"% visual injury, observed (Ob)",[6]; compound 2 35 + CQC-m 0 g/ha,100%
same,"% visual injury, observed (Ob)",[6]; compound 2 70 + CQC-m 0 g/ha,100%
same,"% visual injury, observed (Ob)",[8]; [10],30%
same,"% visual injury, observed (Ob)",[8]; compound 2 8.75 + CQC-m 0 g/ha,58%
same,"% visual injury, observed (Ob)",[8]; compound 2 17.5 + CQC-m 0 g/ha,91%
same,"% visual injury, observed (Ob)",[8]; compound 2 35 + CQC-m 0 g/ha,98%
same,"% visual injury, observed (Ob)",[8]; compound 2 70 + CQC-m 0 g/ha,100%
